Assay [1] has as its system IRF pathway in THP1-Dual STING reporter cells. In words: STING THP1 Reporter Assay, IRF pathway (secreted Lucia luciferase). Type of assay: cell-based, human. As to conditions: 100% = 100 μM cGAMP. From the text: (§1) THP1-Dual™ cells were derived from the human THP-1 monocyte cell line by stable integration of two inducible reporter constructs. To this end, THP1-Dual™ cells allow the simultaneous study of the NF-κB pathway, by monitoring the activity of SEAP, and the IRF pathway by assessing the activity of a secreted luciferase (Lucia). Both reporter proteins are readily measurable in the cell culture supernatant when using QUANTI-Blue™, a SEAP detection reagent, and QUANTI-Luc™, a luciferase detection reagent.
(§2) THP1-Dual™ cells induce the activation of NF-κB in response to STING agonists. They also trigger the IRF pathway upon stimulation with STING agonists, such as cGAMP. Here, the THP-1-Dual cells were used to assess STING binders for function on the cellular level.
(§3) Serial dilutions of compounds in DMSO were added to low volume 384 well plates at 100 nl/well using an ECHO acoustic dispenser (Labcyte, model 550) to achieve final starting concentration of 100 μM in cell suspension. […] One column of the plate was reserved for treatment with cGAMP at 100 μM for 100% activation calculation and one column for no treatment (DMSO only) for baseline activation. Plates were then incubated in 37° C. incubator at 5% CO2 for 20 hours.
(§4) In the SEAP assay, 5 μl of 2× QuantiBlue (Invivogen, cat #Rep-qb2) is added to 384 well black plates seeded with THP1 cells and incubated at 37° C. for 2 hours. Plates were read on the Envision (Perkin Elmer) at 620 nm wavelength (OD620). In the luciferase assay, 5 μl of Quantiluc (Invivogen, Rep-qlc2) is added to white 384 well plates seeded with THP1 cells and read at 5 minutes on the Envision (Perkin Elmer) using a luminescence protocol (RLU). For both cell lines, 100% activation was determined by value (RLU) of THP-1 Dual STING cells stimulated with 100 μM cGAMP (Invivogen, cat #TLRL-NACGA23-5).
Background: A reporter such as luciferase makes a cellular process visible.

For assay [2], the system named is NF-κB pathway in THP1-Dual STING reporter cells. In words: STING THP1 Reporter Assay, NF-κB pathway (SEAP). To be noted: 100% = 100 μM cGAMP. Type of assay: cell-based, human.
Excerpt: as §1, §2, §3, §4

For assay [3], the target named is T1, STING WT: His-TVMV-S-hSTING(155-341)-H232R (Homo sapiens, UniProt Q86WV6, H232R).
T1 construct: STING WT: His-TVMV-S-hSTING(155-341)-H232R
Description: STING HTRF Binding Assay, STING WT. To be noted: 20 nM His-tagged STING cytoplasmic domain, 200 nM fluorescein-labeled cGAMP analog probe, one hour; read-out: HTRF Binding Assays IC50 (μM) STING WT. As for the experimental part: (§5) A time resolved FRET-based competition binding assay was used to assess test article binding to STING WT and STING AQ. His-tagged STING cytoplasmic domain (WT or AQ) at a concentration of 20 nM was incubated with 2.5 nM Tb-labeled anti-His antibody, test compound, and fluorescein-labeled cGAMP analog probe (BioLog cat. no. C195) at a concentration of 200 nM (STING WT) or 40 nM (STING AQ) in PBS containing 0.005% Tween-20 and 0.1% BSA for one hour. Fluorescence at 495 nm and 520 nm was measured using an EnVision microplate reader to quantify FRET between Tb-labeled anti-His antibody and fluorescein-labeled probe. Background was defined as the signal obtained in the absence of STING protein, and background subtracted FRET ratios were normalized to the maximum signal obtained in the absence of test compound. These values were converted to a percent inhibition. Percent inhibition was determined for test compounds at 11 concentrations. The IC50, defined as the concentration of competing test compound needed to reduce specific binding of the probe by 50%, was calculated using the 4 parameter logistic equation to fit the data

Assay [4] has as its target T2, STING AQ: His-TVMV-S-hSTING(155-341)-G230A-R293Q (Homo sapiens, UniProt Q86WV6, G230A/H232R/R293Q).
T2 construct: STING AQ: His-TVMV-S-hSTING(155-341)-G230A-R293Q
Description: STING HTRF Binding Assay, STING AQ. As to conditions: 20 nM His-tagged STING cytoplasmic domain, 40 nM fluorescein-labeled cGAMP analog probe, one hour; read-out: HTRF Binding Assays IC50 (μM) STING AQ. As for the experimental part:
as §5
Background: In TR-FRET formats the signal depends on donor and acceptor labels being close together.

Where [5] appears, read: read-out: THP1 Reporter Assays EC50 (μM) IRF3, THP1-Dual cells, 10% human plasma, 20 hours, luciferase.
The mark [6] stands for this setting: read-out: THP1 Reporter Assays EC50 (μM) NFkB, THP1-Dual cells, 10% human plasma, 20 hours, SEAP.
Setting [7] is: Homo sapiens, THP1-Dual, 20 h, read-out: THP1 Reporter Assays EC50 (μM) IRF3, THP1-Dual cells, 10% human plasma, 20 hours, luciferase.
[8] abbreviates: Homo sapiens, THP1-Dual, 20 h, THP1-Dual cells, 10% human plasma, 20 hours, SEAP, read-out: THP1 Reporter Assays EC50 (μM) NFkB.
Setting [9] is: THP1-Dual cells, 10% human plasma, 20 hours, SEAP, read-out: THP1 Reporter Assays EC50 (μM) NFkB.
Setting [10] is: Homo sapiens, THP1-Dual, 20 h, read-out: THP1 Reporter Assays EC50 (μM) NFkB, THP1-Dual cells, 10% human plasma, 20 hours, SEAP.
[11] abbreviates: Homo sapiens, THP1-Dual, 20 h, THP1-Dual cells, 10% human plasma, 20 hours, luciferase, read-out: THP1 Reporter Assays EC50 (μM) IRF3.

Structures are written as SMILES. Like-named read-outs stand apart in the source and are kept apart here.

T2 sequence (Q86WV6 with tags, fused parts or gaps G230A/H232R/R293Q): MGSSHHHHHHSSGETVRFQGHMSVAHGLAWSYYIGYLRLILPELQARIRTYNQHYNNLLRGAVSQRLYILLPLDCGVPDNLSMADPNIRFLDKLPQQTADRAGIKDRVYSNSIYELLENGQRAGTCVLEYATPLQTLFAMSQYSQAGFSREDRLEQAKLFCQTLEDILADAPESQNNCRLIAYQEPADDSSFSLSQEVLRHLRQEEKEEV
T1 sequence (Q86WV6 with tags, fused parts or gaps H232R): as the sequence (Q86WV6 with tags, fused parts or gaps G230A/H232R/R293Q) above, with A99G, Q162R counted along it

Broadly, the EC50 is the concentration that produces a half-maximal response. By IC50 is commonly meant the concentration that inhibits the measured activity by half. Regarding `Nc1ncnc2c1ncn2[C@@H]1O[C@@H]2COP(=O)(S)O[C@H]3[C@@H](O)[C@H](n4cnc5c4ncn4ncnc54)O[C@@H]3COP(=O)(O)O[C@H]2[C@H]1F` (single isomer, unassigned) [Example 10-1], the EC50 in assay [1] (setting [5]) and in assay [2] (setting [6]) was above 100 µM each time. For the same molecule, the half-inhibitory concentration (IC50) in assay [3] is 2.5 µM; in assay [4], 0.04 µM.
Turning to `Nc1ncnc2c1ncn2[C@@H]1O[C@@H]2COP(O)(=S)O[C@H]3[C@@H](F)[C@H](n4cnc5c4ncn4ncnc54)O[C@@H]3COP(O)(=S)O[C@H]2[C@H]1F` (single isomer, unassigned) [Example 12-1], the EC50 in assay [1] (setting [7]) came to 8.2 µM; in assay [2] (setting [8]), 65.9 µM. Besides, the figures for the half-maximal inhibitory concentration (IC50) in assay [3] and in assay [4] were 0.56 µM and 0.04 µM, respectively.
Consider `Nc1ncnc2c1ncn2[C@@H]1O[C@@H]2COP(=O)(S)O[C@H]3[C@@H](F)[C@H](n4cnc5c4ncn4ncnc54)O[C@@H]3COP(=O)(S)O[C@H]2[C@H]1F` (single isomer, unassigned) [Example 12-2], for which the figures for the concentration for a half-maximal effect (EC50) in assay [1] (setting [5]) and in assay [2] (setting [9]) were 0.2 µM and 2.64 µM, respectively. Moreover, the IC50 in assay [3] stood at 0.01 µM; in assay [4] it was 0.002 µM.
`Nc1ncnc2c1ncn2[C@@H]1O[C@@H]2COP(=O)(S)O[C@H]3[C@@H](F)[C@H](n4cnc5c4ncn4ncnc54)O[C@@H]3COP(=O)(S)O[C@H]2[C@H]1F` (single isomer, unassigned) [Example 12-3]: the EC50 was 0.27 µM in assay [1] (setting [5]) and 2.65 µM in assay [2] (setting [9]). Moreover, the IC50 in assay [3] was 0.02 µM; in assay [4], 0.003 µM.
The like results for `Nc1ncnc2c1ncn2[C@@H]1O[C@@H]2COP(=O)(S)O[C@H]3[C@@H](F)[C@H](n4cnc5c4ncn4ncnc54)O[C@@H]3COP(=O)(S)O[C@H]2[C@H]1F` (single isomer, unassigned) [Example 12-4] were, in that order, 0.06 µM, 1.09 µM, 0.002 µM and 0.005 µM.
Turning to `Nc1ncnc2c1ncn2[C@@H]1O[C@@H]2COP(=O)(S)O[C@H]3[C@@H](O)[C@H](n4nnc5c([N+](=O)[O-])cccc54)O[C@@H]3COP(=O)(O)O[C@H]2[C@H]1F` (single isomer, unassigned) [Example 13-1], the concentration for a half-maximal effect (EC50) in assay [1] (setting [7]) and in assay [2] (setting [10]) was above 100 µM each time. In addition, the results for the IC50 in assay [3] and in assay [4] were 8.45 µM and 1.44 µM, respectively.
In the case of `Nc1ncnc2c1ncn2[C@@H]1O[C@@H]2COP(=O)(S)O[C@H]3[C@@H](O)[C@H](n4nnc5c([N+](=O)[O-])cccc54)O[C@@H]3COP(=O)(O)O[C@H]2[C@H]1F` (single isomer, unassigned) [Example 13-2], the EC50 in assay [1] (setting [5]) and in assay [2] (setting [6]) was above 100 µM each time. Besides, the figures for the IC50 in assay [3] and in assay [4] were 5.49 µM and 0.45 µM, respectively.
With `Nc1ncnc2c1ncn2[C@@H]1O[C@@H]2COP(=O)(S)O[C@H]3[C@@H](F)[C@H](n4cnc5c4ncn4ccnc54)O[C@@H]3COP(=O)(S)O[C@H]2[C@H]1F` (single isomer, unassigned) [Example 21-1], the EC50 came out at 28.2 µM in assay [1] (setting [5]) and 34.6 µM in assay [2] (setting [6]). Moreover, the IC50 turned out to be 0.32 µM in assay [3] and 0.01 µM in assay [4].
The matching figures for `Nc1ncnc2c1ncn2[C@@H]1O[C@@H]2COP(=O)(S)O[C@H]3[C@@H](F)[C@H](n4cnc5c4ncn4ccnc54)O[C@@H]3COP(=O)(S)O[C@H]2[C@H]1F` (single isomer, unassigned) [Example 21-2]: 0.13 µM, 0.56 µM, 0.02 µM and 0.01 µM.
Regarding `Nc1ncnc2c1ncn2[C@@H]1O[C@@H]2COP(=O)(S)O[C@H]3[C@@H](F)[C@H](n4cnc5c4ncn4ccnc54)O[C@@H]3COP(=O)(S)O[C@H]2[C@H]1F` (single isomer, unassigned) [Example 21-3], the concentration giving a half-maximal response (EC50) is 0.14 µM in assay [1] (setting [5]) and 0.53 µM in assay [2] (setting [6]). Also, the concentration for half-maximal inhibition (IC50) in assay [3] was 0.02 µM; in assay [4], 0.01 µM.
`Nc1ncnc2c1ncn2[C@@H]1O[C@@H]2COP(=O)(S)O[C@H]3[C@@H](F)[C@H](n4cnc5c4ncn4ccnc54)O[C@@H]3COP(=O)(S)O[C@H]2[C@H]1F` (single isomer, unassigned) [Example 21-4]: the EC50 in assay [1] (setting [5]) was found to be 0.28 µM; in assay [2] (setting [6]), 0.67 µM. In addition, the IC50 in assay [3] and in assay [4] was 0.01 µM throughout.
In the case of `Nc1ncnc2c1ncn2[C@@H]1O[C@@H]2COP(=O)(O)O[C@H]3[C@@H](O)[C@H](n4cnc5c(=O)n6ccnc6[nH]c54)O[C@@H]3COP(=O)(O)O[C@H]2[C@H]1F` [Example 2, (1S,6R,8R,9R,10R,15R,17R,18R)-8-(6-amino-9H-purin-9-yl)-9-fluoro-3,12,18-trihydroxy-17-{9-oxo-3H,4H,9H-imidazo[1,2-a]purin-3-yl}-2,4,7,11,13,16-hexaoxa-3λ^5,12λ^5-diphosphatricyclo[13.3.0.0^6,10]octadecane-3,12-dione], the half-maximal effective concentration (EC50) amounted to 2.36 µM in assay [1] (setting [7]) and 4.38 µM in assay [2] (setting [10]). Moreover, the IC50 in assay [3] amounted to 0.04 µM; in assay [4], 0.01 µM.
As for `Nc1ncnc2c1ncn2[C@@H]1O[C@@H]2COP(=O)(O)O[C@H]3[C@@H](F)[C@H](n4cnc5c4ncn4ccnc54)O[C@@H]3COP(=O)(O)O[C@H]2[C@H]1F` [Example 3], the EC50 was 5.76 µM in assay [1] (setting [11]) and 24.4 µM in assay [2] (setting [8]). The figures for the half-maximal inhibitory concentration (IC50) in assay [3] and in assay [4] were 0.04 µM and 0.02 µM, respectively.
In the case of `NC(=O)c1cccc2c1nnn2[C@@H]1O[C@@H]2COP(=O)(O)O[C@H]3[C@@H](F)[C@H](n4cnc5c(N)ncnc54)O[C@@H]3COP(=O)(O)O[C@H]2[C@H]1F` [Example 7, 1-[(1R,6R,8R,9R,10R,15R,17R,18R)-17-(6-amino-9H-purin-9-yl)-9,18-difluoro-3,12-dihydroxy-3,12-dioxo-2,4,7,11,13,16-hexaoxa-3λ^5,12λ^5-diphosphatricyclo[13.3.0.0^6,10]octadecan-8-yl]-1H-1,2,3-benzotriazole-4-carboxamide], the 50% effective concentration (EC50) in assay [1] (setting [11]) and in assay [2] (setting [10]) was above 100 µM throughout. The half-maximal inhibitory concentration (IC50) was determined as 11.9 µM in assay [3] and 0.31 µM in assay [4].
Consider `NC(=O)c1cccc2c1nnn2[C@@H]1O[C@@H]2COP(=O)(O)O[C@H]3[C@@H](F)[C@H](n4cnc5c4ncn4ccnc54)O[C@@H]3COP(=O)(O)O[C@H]2[C@H]1F` [Example 9], for which the EC50 in assay [1] (setting [11]) and in assay [2] (setting [10]) was above 100 µM in each case. The figures for the IC50 in assay [3] and in assay [4] were 84.1 µM and 0.42 µM, respectively.

For the origin of these results see patent US11660311B2, “Cyclic dinucleotides as anticancer agents” (priority 2017, dated 2023).
